Measured values as given in ChEMBL document CHEMBL3272184.

Assays:
[1] = molecular target: T1, Phenylethanolamine N-methyltransferase (Bos taurus) (UniProt P10938); experiment: Inhibition of bovine adrenal medulla phenylethanolamine N-methyltransferase using 24 to 210 uM S-adenosylmethionine substrate
T1 sequence (whole entry): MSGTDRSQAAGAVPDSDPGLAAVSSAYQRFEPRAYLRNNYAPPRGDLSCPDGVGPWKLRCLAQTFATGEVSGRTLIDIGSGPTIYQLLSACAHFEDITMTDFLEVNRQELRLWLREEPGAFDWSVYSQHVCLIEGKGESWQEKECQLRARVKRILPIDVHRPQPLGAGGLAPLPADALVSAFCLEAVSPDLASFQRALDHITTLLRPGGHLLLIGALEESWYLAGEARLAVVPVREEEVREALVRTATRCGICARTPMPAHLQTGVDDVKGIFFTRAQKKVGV

[2] = molecular target: T2, Acetylserotonin O-methyltransferase (Bos taurus) (UniProt P10950); experiment: Inhibition of bovine pineal gland hydroxyindole O-methyltransferase using 24 to 210 uM S-adenosylmethionine substrate
T2 sequence (whole entry): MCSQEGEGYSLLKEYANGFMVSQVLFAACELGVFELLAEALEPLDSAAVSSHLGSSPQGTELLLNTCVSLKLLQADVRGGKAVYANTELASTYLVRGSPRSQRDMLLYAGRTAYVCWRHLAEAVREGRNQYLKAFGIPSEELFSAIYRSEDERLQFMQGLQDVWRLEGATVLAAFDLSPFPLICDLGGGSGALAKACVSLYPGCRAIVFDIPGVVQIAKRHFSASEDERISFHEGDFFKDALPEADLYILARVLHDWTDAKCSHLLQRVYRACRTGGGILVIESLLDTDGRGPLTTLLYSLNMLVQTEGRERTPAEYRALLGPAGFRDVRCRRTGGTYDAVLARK

[3] = molecular target: T3, Catechol O-methyltransferase (Rattus norvegicus) (UniProt P22734); experiment: Inhibition of Sprague-Dawley rat liver catechol O-methyltransferase using 24 to 210 uM S-adenosylmethionine substrate
T3 sequence (whole entry): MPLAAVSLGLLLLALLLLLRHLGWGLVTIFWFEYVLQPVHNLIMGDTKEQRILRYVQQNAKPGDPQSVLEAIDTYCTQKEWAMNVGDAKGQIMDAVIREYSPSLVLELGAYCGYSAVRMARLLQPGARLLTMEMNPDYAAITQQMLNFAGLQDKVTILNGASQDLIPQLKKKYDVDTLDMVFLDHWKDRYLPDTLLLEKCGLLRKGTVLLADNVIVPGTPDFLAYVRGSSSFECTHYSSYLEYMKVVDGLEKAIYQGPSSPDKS

SMILES	Kis [1] [µM]	Kis [2] [µM]	Kis [3] [µM]
Nc1ncnc2c1ncn2[C@@H]1O[C@H](CSCC[C@H](N)C(=O)O)[C@@H](O)[C@H]1O	29	18.5	36.3
Nc1ncnc2c1ncn2[C@@H]1C[C@@H](CSCC[C@H](N)C(=O)O)[C@@H](O)[C@H]1O	–	51.8	–
